The record followed here is BindingDB's records for doi:10.1158/1535-7163.MCT-07-0187 (Burnham Institute For Medical Research, 2007).

pKi: −log10 of the molar value.

The target in the experiment is T1, Fatty acid synthase [2202-2509] (Homo sapiens, UniProt P49327).
T1 construct: 2202-2509
The experiment can be described thus: Fluorogenic Assay for Detection of FASTE Inhibition. To be noted: pH 7.5; 37 °C.

T1 sequence (P49327 2202-2509): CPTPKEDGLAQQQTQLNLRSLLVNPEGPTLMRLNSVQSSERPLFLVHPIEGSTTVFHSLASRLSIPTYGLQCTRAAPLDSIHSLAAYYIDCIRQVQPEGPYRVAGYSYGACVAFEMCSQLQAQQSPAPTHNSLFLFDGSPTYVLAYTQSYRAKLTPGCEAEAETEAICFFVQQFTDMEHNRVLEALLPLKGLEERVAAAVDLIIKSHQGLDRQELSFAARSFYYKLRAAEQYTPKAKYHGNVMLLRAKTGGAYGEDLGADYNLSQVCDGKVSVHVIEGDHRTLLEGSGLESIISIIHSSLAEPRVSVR
Method: The reaction mixture consisted of FAS thioesterase domain (FASTE) in buffer, which was preincubated with test compounds for 30 min. The reaction was initiated by addition of substrate 4-MUH. […] The inhibition constants (Ki) were calculated using the equation of Cheng and Prusoff.

In general, pKi refers to the negative decadic logarithm of the Ki, by convention in mol/L. Turning to `Cc1cc(C)cc(N2C(=O)NC(=O)C(=Cc3ccc(-c4ccccc4)o3)C2=O)c1` [(5E)-1-(3,5-dimethylphenyl)-5-[(5-phenylfuran-2-yl)methylidene]-1,3-diazinane-2,4,6-trione], the pKi is 6.42.

For `Cc1ccccc1N1C(=O)NC(=O)C(=Cc2ccc(-c3ccc(F)cc3)o2)C1=O` [(5E)-5-{[5-(4-fluorophenyl)furan-2-yl]methylidene}-1-(2-methylphenyl)-1,3-diazinane-2,4,6-trione], the pKi was 6.04.

`O=C1NC(=O)N(c2cccc(Br)c2)C(=O)C1=Cc1ccc(-c2ccccc2[N+](=O)[O-])o1` [(5E)-1-(3-bromophenyl)-5-{[5-(2-nitrophenyl)furan-2-yl]methylidene}-1,3-diazinane-2,4,6-trione] gave a negative logarithm of the Ki (pKi) of 6.06.

As to `O=C1NC(=O)N(Cc2ccccc2)C(=O)/C1=C/c1ccc(-c2ccccc2Cl)o1` [(5E)-1-benzyl-5-{[5-(2-chlorophenyl)furan-2-yl]methylidene}-1,3-diazinane-2,4,6-trione], the pKi is 6.07.
